{"source": "patent US20100286029A1", "about": "“USE OF A PEPTIDE AS A THERAPEUTIC AGENT” (priority 2007, published 2010)", "key": {"spleen cells": {"system": "spleen cells", "experiment": "Th1/Th2 cytokine profiling assay (Ovalbumin-restimulated spleen cells, CBA kit)", "assay_type": "cell-based, Balb/c mice", "details": "10 micrograms per ml; Ovalbumin restimulation, 72 hours"}, "Human A549 cells": {"system": "Human A549 cells", "experiment": "Apoptosis prevention assay (C2 ceramide, Annexin-5)", "assay_type": "cell-based", "details": "10 micrograms per ml, 30 min pretreatment", "procedure": "Human A549 cells (carcinomic human alveolar basal epithelial cells) were utilized in the experiments employing the Annexin-5 apoptosis assay. […] A549 cells were pretreated for 30 min with test peptides—10 micrograms per ml—followed by the exposure to C2 ceramide."}, "human macrophages": {"system": "human macrophages", "experiment": "TNF alpha production assay (LPS-stimulated macrophages, ELISA)", "assay_type": "cell-based", "details": "10 micrograms per ml, 30 min preincubation; LPS 200 ng/ml, overnight", "procedure": "Human Peripheral Blood Mononuclear Cells (PBMC) were obtained from normal human donors. The macrophages were prepared by adherence of PBMC to the plastic wells of the plates. […] Not stimulated macrophages served as negative background control. After overnight incubation, supernatants from the control and LPS-stimulated cultures were harvested and assayed for TNF alpha production employing a TNF alpha specific ELISA."}, "[1]": {"system": "hepatitis B virus (HBV) ayw strain", "experiment": "HBV experimental assay system, secreted HBV DNA by TaqMan PCR in HepG2-2.2.15", "assay_type": "cell-based", "details": "10 micrograms per ml; HepG2-2.2.15 cells, six days", "procedure": "HepG2-2.2.15 is a stable cell line containing the hepatitis B virus (HBV) ayw strain genome (ATCC Cat. No. CRL-11997). Antiviral compounds blocking any late step of viral replication such as transcription, translation, pregenome encapsidation, reverse transcription, particle assembly and release can be identified and characterized using this cell line.\nHepG2-2.2.15 cells were plated in 96-well microtiter plates. After 16-24 hours the confluent monolayer of HepG2-2.2.15 cells was washed and the medium was replaced with complete medium containing test peptides-10 micrograms per ml—in duplicate. […] Three days later the culture medium was replaced with fresh medium containing the peptides. Six days following the initial administration of the peptides, the cell culture supernatants was collected, treated with pronase and DNAse and then used in a real-time quantitative TaqMan PCR assay. The PCR-amplified HBV DNA was detected in real-time by monitoring increases in fluorescence signals that result from the exonucleolytic degradation of a quenched fluorescence probe molecule that hybridizes to the mplified HBV DNA. For each PCR amplification, a standard curve was simultaneously generated using dilutions of purified HBV DNA.\nAntiviral activity was calculated from the reduction in HBV DNA levels (% virus control). […]"}, "[2]": {"system": "Human Peripheral Blood Mononuclear Cells (PBMC)", "experiment": "B cell proliferation assay (SAC plus Interleukin-2, 3H-thymidine)", "assay_type": "cell-based", "details": "10 micrograms per ml", "procedure": "Human Peripheral Blood Mononuclear Cells (PBMC) were obtained from normal human donors. The B cell proliferation was induced by stimulation of the cells with the B cell mitogen Staphylococcus aureus Cowans I (SAC) plus Interleukin-2, either in the absence (positive proliferation control), or in the presence of test peptides—10 micrograms per ml—to examine their effects on the B cell response. 10^5/well PBMC were plated in 96-well microtiter plates and assayed in duplicate with the peptides. […] At the end of incubation time, the plates were harvested and the cells counted by liquid scintillation for the incorporation of ^3H-thymidine as a measure of B cell proliferation."}, "[3]": {"system": "Human Peripheral Blood Mononuclear Cells (PBMC)", "experiment": "T cell proliferation assay (PHA, 3H-thymidine)", "details": "10 micrograms per ml, 3H-thymidine incorporation", "procedure": "Human Peripheral Blood Mononuclear Cells (PBMC) were obtained from normal human donors. The T cell proliferation was induced by stimulation of the cells with the T cell mitogen phytohemagglutinin (PHA), either in the absence (positive proliferation control), or in the presence of test peptides—10 micrograms per ml—to examine their effects on the T cell proliferating response. 10^5/well PBMC were plated in 96-well microtiter plates and assayed in duplicate with the peptides. […] At the end of incubation time, the plates were harvested and the cells counted by liquid scintillation for the incorporation of ^3H-thymidine as a measure of T cell proliferation."}}, "note": "No end group written: not given here.", "data": [{"substance": "Tyr-Pro-Phe-Val-Glu-Pro-Ile-OH (YPFVEPI-OH) [Peptide 1]", "values": [{"measurement": "IFNγ spleen cells; TH1 response (% of control)", "setting": "spleen cells", "result": "218.6 % of control"}, {"measurement": "IL-2 spleen cells (% of control)", "setting": "spleen cells", "result": "96.9 % of control"}, {"measurement": "IL-4 spleen cells; TH2 response (% of control)", "setting": "spleen cells", "result": "142.1 % of control"}, {"measurement": "IL-5 spleen cells; TH2 response (% of control)", "setting": "spleen cells", "result": "81.6 % of control"}, {"measurement": "TNF-a spleen cells; TH1 response (% of control)", "setting": "spleen cells", "result": "143.7 % of control"}, {"measurement": "prevention (reduction) of ceramide-induced apoptosis on human lung cells", "setting": "Human A549 cells", "result": 37.3, "unit": "%"}, {"measurement": "induction of the LPS-induced TNF-alpha production in human macrophages", "setting": "human macrophages", "result": 18.4, "unit": "%"}, {"measurement": "inhibition of HBV replication as compared to the virus control infection", "setting": "[1]", "result": 23.8, "unit": "%"}, {"measurement": "induction of the proliferation of specifically stimulated human B-cells", "setting": "[2]", "result": "did not induce"}, {"measurement": "% of PHA induced Control (T cell proliferation)", "setting": "[3]", "result": 98.8, "unit": "%"}]}]}
